Converted amounts (≈) assume the structure as drawn. Where two headings read alike, the source gives them in different places.
How the values were obtained:
[1] = system: K562/adr, NB4, Kasumi-1 and H9; test: Anti-leukemia activity, summary over cell lines; assay type: cell-based, human; conditions: result in words, summary of Table 1
Excerpt: Leukemia cell lines: K562/adr (drug-resistant, chronic myeloid leukemia, CML), NB4 (acute promyelocytic leukemia, AML), Kasumi-1 (acute myeloid leukemia M2 type, AML-M2), Jurkat (acute lymphoblastic leukemia, ALL), all of which are donated by Cancer Research Institute of Zhejiang University, China; and H9 (acute lymphoblastic leukemia, ALL), which is purchased from China Center for Type Culture Collection.
Obtaining 6000 well-growing leukemia cells and inoculating them into wells of a 96-well cell culture plate. The culture medium is the 1640 cell culture medium containing 10% fetal bovine serum. After adding the homoharringtonine derivatives of different concentrations and mixing uniformly, placing the plate in a carbon dioxide cell incubator (5% CO2) at 37° C. and incubating for 72 hours. Then the viable cell concentration is determined by the MTT method. In this experiment, the cell viability in control group (not treated with any compound) is set as 100%.

[2] = system: H9 (acute lymphoblastic leukemia, ALL); test: MTT leukemia cell growth inhibition, 72 h; assay type: cell-based, human; conditions: H9, 72 h
Outline: (§1)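 6000 cells per well were seeded in RPMI 1640 with 10% FBS, treated with graded concentrations of homoharringtonine derivatives, and incubated 72 h at 37 °C, 5% CO2. Viable cells were measured by MTT, with untreated control set as 100% viability.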

[3] = system: K562/adr (drug-resistant, chronic myeloid leukemia, CML); test: MTT leukemia cell growth inhibition, 72 h; assay type: cell-based, human
Outline: as §1

[4] = system: Jurkat (acute lymphoblastic leukemia, ALL); test: MTT leukemia cell growth inhibition, 72 h; assay type: cell-based, human
Outline: as §1

[5] = system: NB4 (acute promyelocytic leukemia, AML); test: MTT leukemia cell growth inhibition, 72 h; assay type: cell-based, human; conditions: NB4, 72 h
Outline: as §1

[6] = system: Kasumi-1 (acute myeloid leukemia M2 type, AML-M2); test: MTT leukemia cell growth inhibition, 72 h; assay type: cell-based, human; conditions: Kasumi-1, 72 h
Outline: as §1

[7] = system: RPMI8226 (multiple myeloma); test: MTT multiple myeloma cell growth inhibition, 72 h; assay type: cell-based, human; conditions: for IC50 / IC90: RPMI8226, 72 h; for anti-RPMI8226 (multiple myeloma) effect: result in words, summary of Table 2
Outline: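 Viability determined by MTT after 72 h of compound exposure at 37° C under 5% CO2. Myeloma RPMI8226 cells were seeded at 6000 per well in 1640 medium containing 10% fetal bovine serum.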

MG63 (osteosarcoma) = test: MTT solid tumor cell growth inhibition, 72 h; assay type: cell-based, human; conditions: MG 63, 72 h
Outline: (§2)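 Cells (4000/well) were seeded in DMEM high glucose with 10% FBS and grown 24 h at 37° C, 5% CO2, then exposed to graded concentrations of homoharringtonine derivatives for 72 h. Viable cells were measured by MTT, with viability expressed as % of untreated control (100%).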

PC-3 (prostate cancer) = test: MTT solid tumor cell growth inhibition, 72 h; assay type: cell-based, human; conditions: PC-3, 72 h
Outline: as §2

[8] = system: CaES-17 (esophageal cancer cell); test: MTT solid tumor cell growth inhibition, 72 h; assay type: cell-based, human; conditions: CaES-17, 72 h
Outline: as §2

[9] = system: SK-OV-3 (ovarian cancer cell); test: MTT solid tumor cell growth inhibition, 72 h; assay type: cell-based, human; conditions: SK-OV-3, 72 h
Outline: as §2

[10] = system: PANC-1 (pancreatic cancer); test: MTT solid tumor cell growth inhibition, 72 h; assay type: cell-based, human; conditions: PANC-1, 72 h
Outline: as §2

[11] = system: U87 MG (malignant glioma cell); test: MTT solid tumor cell growth inhibition, 72 h; assay type: cell-based, human
Outline: as §2

[12] = system: CNE (nasopharyngeal carcinoma cell); test: MTT solid tumor cell growth inhibition, 72 h; assay type: cell-based, human
Outline: as §2

[13] = system: MGC 803 (human gastric cancer cell); test: MTT solid tumor cell growth inhibition, 72 h; assay type: cell-based; conditions: MGC 803, 72 h
Outline: as §2

A549 (human lung cancer) = test: MTT solid tumor cell growth inhibition, 72 h; assay type: cell-based; conditions: A549, 72 h
Outline: as §2

[14] = system: Huh7 (human liver cancer cell); test: MTT solid tumor cell growth inhibition, 72 h; assay type: cell-based; conditions: Huh7, 72 h
Outline: as §2

[15] = system: RKO (human colon adenocarcinoma cell); test: MTT solid tumor cell growth inhibition, 72 h; assay type: cell-based
Outline: as §2

[16] = system: Hep-2 (human hepatocellular carcinoma); test: MTT solid tumor cell growth inhibition, 72 h; assay type: cell-based; conditions: Hep2, 72 h
Outline: as §2

[17] = system: Hela (human cervical cancer cell); test: MTT solid tumor cell growth inhibition, 72 h; assay type: cell-based
Outline: as §2

[18] = system: Becap37 (human breast cancer cell); test: MTT solid tumor cell growth inhibition, 72 h; assay type: cell-based; conditions: Becap37, 72 h
Outline: as §2

[19] = system: A549, PANC-1, Becap37, MG63, Huh7, RKO, Hela, CaES-17, CNE, Hep-2, PC-3 and SK-OV-3; test: Anti-human solid tumor effect, summary over cell lines; assay type: cell-based; conditions: result in words, summary of Table 2
Protocol: Human solid tumor cell lines: Hep-2 ([…]), A549 (human lung cancer), CaES-17 (esophageal cancer cell), PC-3 (prostate cancer), CNE (nasopharyngeal carcinoma cell), and SK-OV-3 (ovarian cancer cell), all of which are purchased from China Center For Type Culture Collection; RKO (human colon adenocarcinoma cell), MGC 803 (human gastric cancer cell), MG63 (osteosarcoma) and U87 MG (malignant glioma cell), all of which are purchased from Fuxiang Bio-tech Co. Ltd., Shanghai, China; PANC-1 (pancreatic cancer), Huh7 (human liver cancer cell), Becap37 (human breast cancer cell), and Hela (human cervical cancer cell), all of which are donated by Cancer Research Institute of Zhejiang University, China.
Obtaining 4000 well-growing human solid tumor cells and inoculating them into wells of a 96-well cell culture plate. The culture medium is DMEM High Glucose cell culture medium containing 10% fetal bovine serum. The plate is placed in a carbon dioxide cell incubator (5% CO2) at 37° C. and incubating for 24 hours. After adding the homoharringtonine derivatives of different concentration and mixing uniformly, the plate is placed in a carbon dioxide cell incubator (5% CO2) at 37° C. and incubating for 72 hours. Then the viable cell concentration is determined by the MTT method and the cell viability (%) after drug treatment is calculated. In this experiment, the cell viability of control group (not treated with any compound) is set as 100%.

## COC1=C[C@]23CCCN2CCc2cc4c(cc2[C@@H]3[C@@H]1OC(=O)[C@@](O)(CCCC(C)(C)O)CC(=O)NCc1ccc(C)o1)OCO4 [BS-HH-054, O-3-[(2R)-2,6-dihydroxy-2-(2′-(5-methyl)furan-2-methylamino-2′-oxoethyl)-6-methylheptanoyl]cephalotaxine]
[1]
  anti-K562/adr, anti-NB4, anti-Kasumi-1 and anti-H9 activity: strong
[2]; Homo sapiens, read-out: IC50
  IC50: 0.17 µg/mL (≈ 0.272 µM)
[2]; Homo sapiens, read-out: IC90
  IC90: 0.43 µg/mL (≈ 0.688 µM)
[3]; Homo sapiens, K562/Adr, read-out: IC50
  IC50: 0.66 µg/mL (≈ 1.06 µM)
[3]; Homo sapiens, K562/Adr, read-out: IC90
  IC90: 4.4 µg/mL (≈ 7.04 µM)
[4]; Homo sapiens, read-out: IC50
  IC50: 0.11 µg/mL (≈ 0.176 µM)
[4]; Homo sapiens, read-out: IC90
  IC90: 16 µg/mL (≈ 25.6 µM)
[5]; Homo sapiens, read-out: IC50
  IC50: 0.09 µg/mL (≈ 0.144 µM)
[5]; Homo sapiens, read-out: IC90
  IC90: 0.2 µg/mL (≈ 0.32 µM)
[6]; Homo sapiens, read-out: IC50
  IC50: 0.053 µg/mL (≈ 0.0848 µM)
[6]; Homo sapiens, read-out: IC90
  IC90: 0.19 µg/mL (≈ 0.304 µM)
[7]; Homo sapiens, RPMI-8226, read-out: IC50
  IC50: 0.092 µg/mL (≈ 0.147 µM)
[7]; Homo sapiens, RPMI-8226, read-out: IC90
  IC90: 0.24 µg/mL (≈ 0.384 µM)
[7]
  anti-RPMI8226 (multiple myeloma) effect: strong
MG63 (osteosarcoma); Homo sapiens, read-out: IC50
  IC50: 0.12 µg/mL (≈ 0.192 µM)
MG63 (osteosarcoma); Homo sapiens, read-out: IC90
  IC90: 8.07 µg/mL (≈ 12.9 µM)
PC-3 (prostate cancer); Homo sapiens, read-out: IC50
  IC50: 0.46 µg/mL (≈ 0.736 µM)
PC-3 (prostate cancer); Homo sapiens, read-out: IC90
  IC90: > 16 µg/mL
[8]; Homo sapiens, CaEs17, read-out: IC50
  IC50: 1.37 µg/mL (≈ 2.19 µM)
[8]; Homo sapiens, CaEs17, read-out: IC90
  IC90: > 16 µg/mL
[9]; Homo sapiens, read-out: IC50
  IC50: 0.47 µg/mL (≈ 0.752 µM)
[9]; Homo sapiens, read-out: IC90
  IC90: > 16 µg/mL
[10]; Homo sapiens, read-out: IC50
  IC50: 0.15 µg/mL (≈ 0.24 µM)
[10]; Homo sapiens, read-out: IC90
  IC90: > 16 µg/mL
[11]; Homo sapiens, U-87 MG, read-out: IC50
  IC50: 0.32 µg/mL (≈ 0.512 µM)
[11]; Homo sapiens, U-87 MG, read-out: IC90
  IC90: 16 µg/mL (≈ 25.6 µM)
[12]; Homo sapiens, read-out: IC50
  IC50: 0.15 µg/mL (≈ 0.24 µM)
[12]; Homo sapiens, read-out: IC90
  IC90: 16 µg/mL (≈ 25.6 µM)
[13]; Homo sapiens, read-out: IC50
  IC50: 0.15 µg/mL (≈ 0.24 µM)
[13]; Homo sapiens, read-out: IC90
  IC90: 6 µg/mL (≈ 9.6 µM)
A549 (human lung cancer); Homo sapiens, read-out: IC50
  IC50: 0.72 µg/mL (≈ 1.15 µM)
A549 (human lung cancer); Homo sapiens, read-out: IC90
  IC90: > 16 µg/mL
[14]; Homo sapiens, Huh-7, read-out: IC50
  IC50: 0.12 µg/mL (≈ 0.192 µM)
[14]; Homo sapiens, Huh-7, read-out: IC90
  IC90: 16 µg/mL (≈ 25.6 µM)
[15]; Homo sapiens, read-out: IC50
  IC50: 2.75 µg/mL (≈ 4.4 µM)
[15]; Homo sapiens, read-out: IC90
  IC90: 6.97 µg/mL (≈ 11.2 µM)
[16]; Homo sapiens, HEp-2, read-out: IC50
  IC50: 0.23 µg/mL (≈ 0.368 µM)
[16]; Homo sapiens, HEp-2, read-out: IC90
  IC90: > 16 µg/mL
[17]; Homo sapiens, HeLa, read-out: IC50
  IC50: 0.3 µg/mL (≈ 0.48 µM)
[17]; Homo sapiens, HeLa, read-out: IC90
  IC90: > 16 µg/mL
[18]; Homo sapiens, read-out: IC50
  IC50: 0.14 µg/mL (≈ 0.224 µM)
[18]; Homo sapiens, read-out: IC90
  IC90: 16 µg/mL (≈ 25.6 µM)
[19]
  anti-A549, anti-PANC-1, anti-Becap37, anti-MG63, anti-Huh7, anti-RKO, anti-Hela, anti-CaES-17, anti-CNE, anti-Hep-2, anti-PC-3 and anti-SK-OV-3 effect: strong

## O-3-[(2R)-2,6-dihydroxy-2-(2′-pyrrolyl-2′-oxoethyl)-6-methylheptanoyl]cephalotaxine [BS-HH-012]
[1]
  anti-K562/adr, anti-NB4, anti-Kasumi-1 and anti-H9 activity: strong
[2]
  IC50: 0.27 µg/mL
  IC90: 3.49 µg/mL
[3]; K562/adr
  IC50: 0.65 µg/mL
  IC90: 9.87 µg/mL
[4]
  IC50: 0.058 µg/mL
  IC90: 16 µg/mL
[5]
  IC50: 0.08 µg/mL
  IC90: 0.23 µg/mL
[6]
  IC50: 0.038 µg/mL
  IC90: 0.14 µg/mL
[7]
  IC50: 0.057 µg/mL
  IC90: 0.36 µg/mL
  anti-RPMI8226 (multiple myeloma) effect: strong
MG63 (osteosarcoma)
  IC50: 0.18 µg/mL
  IC90: >16 µg/mL
PC-3 (prostate cancer)
  IC50: 0.32 µg/mL
  IC90: >16 µg/mL
[8]
  IC50: 0.43 µg/mL
  IC90: >16 µg/mL
[9]
  IC50: 0.41 µg/mL
  IC90: >16 µg/mL
[10]
  IC50: 0.26 µg/mL
  IC90: >16 µg/mL
[11]
  IC50: 0.24 µg/mL
  IC90: 1.13 µg/mL
[12]
  IC50: 0.13 µg/mL
  IC90: >16 µg/mL
[13]
  IC50: 0.24 µg/mL
  IC90: 6.84 µg/mL
A549 (human lung cancer)
  IC50: 0.45 µg/mL
  IC90: >16 µg/mL
[14]
  IC50: 0.2 µg/mL
  IC90: >16 µg/mL
[15]
  IC50: 0.11 µg/mL
  IC90: 0.43 µg/mL
[16]
  IC50: 0.15 µg/mL
  IC90: >16 µg/mL
[17]; Hela
  IC50: 0.35 µg/mL
  IC90: >16 µg/mL
[18]
  IC50: 0.26 µg/mL
  IC90: 16 µg/mL
[19]
  anti-A549, anti-PANC-1, anti-Becap37, anti-MG63, anti-Huh7, anti-RKO, anti-Hela, anti-CaES-17, anti-CNE, anti-Hep-2, anti-PC-3 and anti-SK-OV-3 effect: strong
